Structures can show the parent of a compound that is named as a salt.

A short description of the data set: Stability testing of carriers in solid form, residual amount determined by HPLC, and appearance. Format: physicochemical. The conditions noted are these: for Appearance: storage condition not specified. The procedure:
The carrier of embodiment 1 was placed in solid form under normal temperature and normal light, normal temperature and away from light, 4° C. away from light and −18° C. away from light, respectively, and the residual amount of the carrier was measured after being placed for 1d, 3d, 7d, 30d, 60d, 90d and 120d, respectively, and the residual amount was determined by HPLC.
The sodium salt of N-(all-trans-retinoyl)-L-cysteic acid methyl ester was placed in solid form at normal temperature and normal light, at normal temperature and away from light, at 4° C. away from light and at −18° C. away from light respectively (other conditions are the same as those in embodiment 4), and the appearance and residual amount were tested after being placed for 1d, 3d, 7d and 30d, respectively, wherein the residual amount was determined by HPLC.

For `COC(=O)[C@H](CS(=O)(=O)O)NC(=O)/C=C(C)/C=C/C=C(C)/C=C/C1=C(C)CCCC1(C)C` [sodium salt of N-(all-trans-retinoyl)-L-cysteic acid methyl ester], the Appearance entry is given as “Yellow powder” (0 d), “Orange” (3 d), “Brown viscous” (7 d) and “Dark brown viscous” (30 d). Moreover, the residual amount is, setting by setting: (4° C. away from light, 0 d) 99.54%; (4° C. away from light, 3 d) 93.76%; (4° C. away from light, 7 d) 89.09%; (4° C. away from light, 30 d) 79.69%; (normal temperature and away from light, 0 d) 99.54%; (normal temperature and away from light, 3 d) 88.91%. The residual amount is, setting by setting: (normal temperature and away from light, 7 d) 78.62%; (normal temperature and normal light, 0 d) 99.54%; (normal temperature and normal light, 3 d) 83.71%; (normal temperature and normal light, 7 d) 64.32%; (−18° C. away from light, 0 d) 99.54%; (−18° C. away from light, 3 d) 96.16%. The residual amount (−18° C. away from light, 7 d) came to 94.17% and the residual amount (−18° C. away from light, 30 d) is given as 89.98%.

Values taken from patent US11667604B2, “Phenyl containing compound, intermediate thereof, preparation method therefor and application thereof” (SHANGHAI MODERN PHARMACEUTICAL ENGINEERING RESEARCH CENTER …, priority 2019, dated 2023).
